The results in this text go back to publication PMC9841533, “Microtubule-Stabilizing 1,2,4-Triazolo[1,5-a]pyrimidines as Candidate Therapeutics for Neurodegenerative Disease: Matched Molecular Pair Analyses and Computational Studies Reveal New Structure–Activity Insights” (Journal of Medicinal Chemistry, 2022).

SMILES strings stand for the structures. Read-outs that look alike come from different tables or passages of the source.

The subject of experiment [1] is acetylated α-tubulin (AcTub) levels in QBI293 cells. Kind of experiment: QBI293 cell assay of MT stabilization: acetylated α-tubulin ELISA. The format is cell-based. The protocol:
(§1) All test compounds were initially screened in the same cell-based (QBI293) assay of MT stabilization used in our previous SAR studies[11],[12] so as to allow direct comparison with literature data. Changes in levels of acetylated α-tubulin (AcTub) and total α-tubulin (α-Tub), relative to vehicle-treated negative control cells, were determined after 4 h of incubation with test compounds at 1 and 10 μM. To account for possible day-to-day differences in the responsiveness of cells to MT-stabilizing treatment, compound-dependent changes in AcTub levels relative to DMSO-treated cells were also normalized to the corresponding changes caused by 100 nM of 5 that was used as a positive control. In addition, docking studies, binding free energy calculations, and in selected cases, molecular dynamic simulations were conducted using an X-ray structure of the vinca and seventh sites (PDB: 5NJH,[10]7CLD[13]). […] For selected compounds, additional studies included testing in the QBI293 cell AcTub assay at additional compound concentrations, and/or evaluation of test compounds for their ability to prevent MT collapse in primary neuron cultures treated with the phosphatase inhibitor, okadaic […] (OA). Finally, cytotoxicity studies in QBI293 and HeLa cells were also conducted for representative examples (Supporting Information).
(§2) Compound-induced changes in acetylated-tubulin and α-tubulin in QBI293 cells or primary mouse or rat neurons were as previously described.[11],[12] […] The plated cells were incubated overnight, after which the medium was aspirated and fresh medium containing vehicle (0.25–0.3% DMSO) or test compound was added. Test compounds were prepared as 4–20 mM stock solutions in 100% DMSO, and these were diluted in culture medium prior to addition to the QBI293 cells. After 4 h incubation, whole-cell extracts were prepared from the QBI293 cells as described[11] and the supernatant fraction from each sample was assessed for protein content by bicinchoninic acid (BCA) assay. The amount of acetyl-tubulin (AcTub) and α-tubulin (αTub) within the cell extract samples was quantified using specific enzyme-linked immunosorbent assays (ELISA), as previously described.[11] Acetyl-tubulin levels were determined in a similar manner in rat or mouse cortical neuron cultures in which embryonic dissociated cortical neurons were plated at 3 × 10^5 cells/well in poly-D-lysine-coated 12-well plates, essentially as previously described.[11] […] Culture homogenates were prepared for the determination of AcTub levels by ELISA as previously described.[11]
(In general: In an ELISA, binding on a coated surface is turned into a signal by an enzyme label.)

Experiment [2] relates to total α-tubulin (α-Tub) levels in QBI293 cells. In words: QBI293 cell assay: total α-tubulin ELISA. Type of experiment: cell-based. The protocol:
as §1, §2

Where [3] appears, read: 4 h, 1 uM compound, read-out: AcTub (1uM).
The mark [4] stands for this setting: 4 h, 10 uM compound, read-out: AcTub (10 uM).
The mark [5] stands for this setting: 4 h incubation, 1 μM, read-out: AcTub 1 μM, fold-change compared to vehicle (DMSO)-treated cells.
The mark [6] stands for this setting: 4 h incubation, 10 μM, read-out: AcTub 10 μM, fold-change compared to vehicle (DMSO)-treated cells.
Setting [7] is: 4 h, 1 uM compound, read-out: AlfaTub (1uM).
Setting [8] is: 4 h, 10 uM compound, read-out: AlfaTub (10 uM).
[9] abbreviates: 4 h incubation, 1 μM, read-out: α-Tub 1 μM, fold-change compared to vehicle (DMSO)-treated cells.
Where [10] appears, read: 4 h incubation, 10 μM, read-out: α-Tub 10 μM, fold-change compared to vehicle (DMSO)-treated cells.

As for `CC1(CNc2c(-c3c(F)cc(F)cc3F)c(Cl)nc3ncnn23)CC1` [Compound 13, 5-Chloro-N-((1-methylcyclopropyl)methyl)-6-(2,4,6-trifluorophenyl)-[1,2,4]triazolo[1,5-a]pyrimidin-7-amine], in experiment [1] (1 uM compound), the “AcTub (1 uM - normalized)” value is 0.26. The “AcTub (10 uM - normalized)” value in experiment [1] (10 uM compound) was determined as 0.49. Also, the fold induction at 1 µM in experiment [1] (setting [3]) amounted to 2.68; in experiment [1] (setting [5]) it was 2.68 ± 0.24; in experiment [2] (setting [7]), 1.04; in experiment [2] (setting [9]), 1.04 ± 0.07. In addition, the fold induction at 10 µM in experiment [1] (setting [4]) is 5.06; in experiment [1] (setting [6]), 5.06 ± 0.23; in experiment [2] (setting [8]) it was 0.97; in experiment [2] (setting [10]) it was 0.97 ± 0.02. The “AcTub 1 μM, fold-change compared to positive control compound 5 (100 nM) (in parentheses)” value (“AcTub 1 μM, fold-change” for short) in experiment [1] (4 h incubation, 1 μM) came out at 0.26 fold-change. In addition, the “AcTub 10 μM, fold-change compared to positive control compound 5 (100 nM) (in parentheses)” value (“AcTub 10 μM, fold-change” for short) in experiment [1] (4 h incubation, 10 μM) amounted to 0.49 fold-change.

`Fc1cc(F)c(-c2c(Cl)nc3ncnn3c2NCC2(C(F)(F)F)CC2)c(F)c1` [Compound 14, 5-Chloro-N-((1-(trifluoromethyl)cyclopropyl)methyl)-6-(2,4,6-trifluorophenyl)-[1,2,4]triazolo[1,5-a]pyrimidin-7-amine]: the “AcTub (1 uM - normalized)” value in experiment [1] (1 uM compound) amounted to 0.22. Also, in experiment [1] (10 uM compound), the “AcTub (10 uM - normalized)” value is on record as 0.34. The fold induction at 1 µM is 1.3 in experiment [1] (setting [3]), 1.3 ± 0.09 in experiment [1] (setting [5]), 1 in experiment [2] (setting [7]) and 1 ± 0.04 in experiment [2] (setting [9]). For the same molecule, the fold induction at 10 µM in experiment [1] (setting [4]) was 2; in experiment [1] (setting [6]), 2 ± 0.36; in experiment [2] (setting [8]) it was 0.97; in experiment [2] (setting [10]), 0.97 ± 0.09. Also, in experiment [1] (4 h incubation, 1 μM), the “AcTub 1 μM, fold-change” value is 0.22 fold-change. In experiment [1] (4 h incubation, 10 μM), the “AcTub 10 μM, fold-change” value amounted to 0.34 fold-change.

In the case of `Fc1cc(F)c(-c2c(Cl)nc3ncnn3c2NCC2CCC2)c(F)c1` [Compound 15, 5-Chloro-N-(cyclobutylmethyl)-6-(2,4,6-trifluorophenyl)-[1,2,4]triazolo[1,5-a]pyrimidin-7-amine], in experiment [1] (1 uM compound), the “AcTub (1 uM - normalized)” value was determined as 0.22. Further, in experiment [1] (10 uM compound), the “AcTub (10 uM - normalized)” value stood at 0.44. The fold induction at 1 µM in experiment [1] (setting [3]) came to 1.55; in experiment [1] (setting [5]) it was 1.55 ± 0.03; in experiment [2] (setting [7]), 1.07; in experiment [2] (setting [9]) it was 1.07 ± 0.01. In addition, the fold induction at 10 µM in experiment [1] (setting [4]) was found to be 3.08; in experiment [1] (setting [6]) it was 3.08 ± 0.03; in experiment [2] (setting [8]), 0.96; in experiment [2] (setting [10]), 0.96 ± 0.03. Further, in experiment [1] (4 h incubation, 1 μM), the “AcTub 1 μM, fold-change” value amounted to 0.22 fold-change. Moreover, the “AcTub 10 μM, fold-change” value in experiment [1] (4 h incubation, 10 μM) was 0.44 fold-change.

As to `C[C@H](Nc1c(-c2c(F)cc(F)cc2F)c(Cl)nc2ncnn12)C1CC1` [Compound 16, (S)-5-Chloro-N-(1-cyclopropylethyl)-6-(2,4,6-trifluorophenyl)-[1,2,4]triazolo[1,5-a]pyrimidin-7-amine], in experiment [1] (1 uM compound), the “AcTub (1 uM - normalized)” value is reported as 0.10. Also, the “AcTub (10 uM - normalized)” value in experiment [1] (10 uM compound) is 0.15. Moreover, the fold induction at 1 µM in experiment [1] (setting [3]) amounted to 0.96; in experiment [1] (setting [5]) it was 0.96 ± 0.06; in experiment [2] (setting [7]) it was 0.95; in experiment [2] (setting [9]), 0.95 ± 0.02. The fold induction at 10 µM was 1.56 in experiment [1] (setting [4]), 1.56 ± 0.06 in experiment [1] (setting [6]), 0.97 in experiment [2] (setting [8]) and 0.97 ± 0.02 in experiment [2] (setting [10]). In addition, the “AcTub 1 μM, fold-change” value in experiment [1] (4 h incubation, 1 μM) is 0.10 fold-change. In experiment [1] (4 h incubation, 10 μM), the “AcTub 10 μM, fold-change” value is reported as 0.15 fold-change.
